Measurements as given in patent US9994535B2, “Desferrithiocin polyether analogues” (University of Florida Research Foundation, Inc., priority 2005, dated 2018).

Key:
Type in all cases: in vivo
[1] = Iron clearing efficiency in iron-overloaded Cebus apella monkey model; conditions: primates, given either p.o. or s.c.
Method: Iron Chelators in a Cebus apella Monkey Model Studies were performed in the iron-overloaded monkey model with the compounds shown below: The protocol used can be found in Bergeron, R. J. et al., “Methoxylation of Desazadesferrithiocin Analogues: Enhanced Iron Clearing Efficiency,” J. Med. Chem. 46:1470-1477 (2003), the contents of which are incorporated herein by reference. Briefly, the monkeys were iron overloaded with iron dextran administered intravenously to result in an iron loading of about 500 mg per kg of body weight. At least 20 half-lives, 60 days, elapsed before the animals were used in experiments evaluating iron chelators. Fecal and urine samples were collected at 24 hour intervals beginning 4 days prior to the administration of an iron chelator and continued for 5 days after the chelator was administered. Iron concentrations in stool and urine were determined by flame atomic absorption spectroscometry. Iron chelator efficiency was calculated by dividing the net iron clearance [total iron excretion (stool plus urine) minus background] by the theoretical iron clearance and multiplying by 100. The theoretical clearance of the iron chelator was generated on the basis of a 2:1 ligand/iron complex.

[2] = Iron clearing efficiency in non-iron overloaded, bile duct cannulated rat model; conditions: for Efficiency (%) (iron clearing efficiency): 300 μmol/kg, 24 hour iron excretion, 2:1 ligand-iron complex
Method: Iron Clearing Efficiency of Iron Chelators in a Non-Iron Overloaded, Bile Duct Cannulated Rat Model
Studies were performed in the non-iron overloaded, bile duct cannulated rodent model with the compounds shown below.
Briefly, male Sprague-Dawley rats averaging 450 g were housed in Nalgene plastic metabolic cages during the experimental period and given free access to water. The animals were anesthetized using sodium pentobarbital (55 mg/kg) administered intraperitoneally. The bile duct was cannulated using 22-gauge polyethylene tubing. The cannula was inserted into the duct about 1 cm from the duodenum and tied snugly in place. After threading through the shoulder, the cannula was passed from the rat to the swivel inside a metal torque-transmitting tether, which was attached to a rodent jacket around the animal's chest. The cannula was directed from the rat to a Gilson microfraction collector (Middleton, Wis.) by a fluid swivel mounted above the metabolic cage. Three hour bile samples were continuously collected for a minimum of 24 hours up to 48 hours. However, the efficiency calculations are based on the 24 hour iron excretion. The efficiency of each chelator was calculated on the basis of a 2:1 ligand-iron complex. The efficiencies in the rodent model were calculated by subtracting the iron excretion of control animals from the iron excretion of treated animals. This number was then divided by the theoretical output; the result is expressed as a percentage (Bergeron, R. J., et al., J. Med Chem. 42:95-108 (1999) the entire contents of which are incorporated herein by reference). The urine sample was taken at 24 hours and handled as previously described in Bergeron, R. J., et al., J. Med. Chem. 34:2072-2078 (1991), the entire contents of which are incorporated herein by reference.

[3] = Tissue and plasma concentrations upon subcutaneous administration to rats; conditions: rat
Method: Tissue Distribution of a Polyether-Substituted (S)-4′-Hydroxydesazadesferrithiocin Analogue [(S)-4′-(HO)-DADFT-PE] Upon Subcutaneous Administration to Rats
A measurement was made assessing (S)-4′-(HO)-DADFT-PE and (S)-4′-(HO)-DADFT tissue and plasma concentrations upon subcutaneous administration at times from 2-8 h post dosing. The rats were given this compound subcutaneously at 300 μmol/kg. The tissue and plasma level were obtained as described in Bergeron et al. J Med Chem. 48:821-831 (2005), the entire contents of which are incorporated herein by reference.

SMILES: COCCOCCOCCOc1ccc(C2=N[C@@](C)(C(=O)O)CS2)c(O)c1 [(S)-4′-(HO)-DADFT-PE, (S)-4,5-Dihydro-2-[2-hydroxy-4-[2-[2-(2-methoxyethoxy)ethoxy]ethoxy]phenyl]-4-methyl-4-thiazolecarboxylic Acid]
- Iron clearing efficiency compared with (S)-4′-(HO)-DADFT [1]: at least as efficient as (S)-4′-(HO)-DADFT
- Efficiency (%) (iron clearing efficiency) ([2]; p.o.): 6.6 ± 1.9%
- Efficiency (%) (iron clearing efficiency) ([2]; s.c.): 8.7 ± 2.8%
- Iron clearing efficiency compared with parent drug (S)-4-(HO)-DADFT ([2]; same micromole per kilogram dose): work better than the parent drug
- Tissue distribution (where most is found) ([3]; sc): found in the liver, kidney and pancreas
- Brain concentration of administered compound ([3]; sc 300 μmol/kg, 2 h): 0.5 ± 0.9 nmol/g wet wt
- Brain concentration of administered compound ([3]; sc 300 μmol/kg, 4 h): 0.0 ± 0.0 nmol/g wet wt
- Brain concentration of administered compound ([3]; sc 300 μmol/kg, 6 h): 0.0 ± 0.0 nmol/g wet wt
- Brain concentration of administered compound ([3]; sc 300 μmol/kg, 8 h): 0.0 ± 0.0 nmol/g wet wt
- Heart concentration of administered compound ([3]; sc 300 μmol/kg, 2 h): 9.2 ± 2.6 nmol/g wet wt
- Heart concentration of administered compound ([3]; sc 300 μmol/kg, 4 h): 5.3 ± 1.4 nmol/g wet wt
- Heart concentration of administered compound ([3]; sc 300 μmol/kg, 6 h): 0.0 ± 0.0 nmol/g wet wt
- Heart concentration of administered compound ([3]; sc 300 μmol/kg, 8 h): 2.0 ± 1.7 nmol/g wet wt
- Kidney concentration of administered compound ([3]; sc 300 μmol/kg, kidney, 2 h): 41.1 ± 3.0 nmol/g wet wt
- Kidney concentration of administered compound ([3]; sc 300 μmol/kg, kidney, 4 h): 33.7 ± 13.5 nmol/g wet wt
- Kidney concentration of administered compound ([3]; sc 300 μmol/kg, kidney, 6 h): 13.7 ± 2.1 nmol/g wet wt
- Kidney concentration of administered compound ([3]; sc 300 μmol/kg, kidney, 8 h): 7.4 ± 2.1 nmol/g wet wt
- Liver concentration of administered compound ([3]; sc 300 μmol/kg, 2 h): 131.6 ± 32.2 nmol/g wet wt
- Liver concentration of administered compound ([3]; sc 300 μmol/kg, 4 h): 66.9 ± 12.4 nmol/g wet wt
- Liver concentration of administered compound ([3]; sc 300 μmol/kg, 6 h): 34.3 ± 1.5 nmol/g wet wt
- Liver concentration of administered compound ([3]; sc 300 μmol/kg, 8 h): 25.4 ± 4.6 nmol/g wet wt
- Pancreas concentration of administered compound ([3]; sc 300 μmol/kg, 2 h): 29.6 ± 24.8 nmol/g wet wt
- Pancreas concentration of administered compound ([3]; sc 300 μmol/kg, 4 h): 12.6 ± 5.2 nmol/g wet wt
- Pancreas concentration of administered compound ([3]; sc 300 μmol/kg, 6 h): 4.6 ± 1.6 nmol/g wet wt
- Pancreas concentration of administered compound ([3]; sc 300 μmol/kg, 8 h): 2.7 ± 2.6 nmol/g wet wt
- concentration at 2 h ([3]; sc 300 μmol/kg, plasma, 2 h, read-out: Plasma concentration of administered compound): 16.2 ± 4.2 µM
- concentration at 4 h ([3]; sc 300 μmol/kg, plasma, 4 h, read-out: Plasma concentration of administered compound): 5.3 ± 2.6 µM
- concentration at 6 h ([3]; sc 300 μmol/kg, plasma, 6 h, read-out: Plasma concentration of administered compound): 1 ± 1 µM
- concentration at 8 h ([3]; sc 300 μmol/kg, plasma, 8 h, read-out: Plasma concentration of administered compound): 0 nM
- Metabolism back to (S)-4-(HO)DADFT ([3]; sc, any tissue): very little metabolism
- Kidney level compared with (S)-4-(HO)-DADFT ([3]; sc, kidney, any time point): much less of the PE in the kidney
